Values joined by “and” are separate entries in the source; they are usually repeats but may differ in a detail not shown here. Equal values may be shown once. Inconclusive results and toxic doses are left out.
System: L1210 leukemia ip in BDF1 mice, survival T/C
Test: NCI In Vivo Anticancer Drug Screen. Data for tumor model L1210 Leukemia (intraperitoneal) in B6D2F1 (BDF1) mice
Conditions: endpoint: mean survival time, higher = longer survival
In short: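 Value reflects the ratio of survival in compound-treated mice to survival in vehicle-treated controls, with both groups carrying the same transplanted tumor.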

[1] = dose: 100.0 mg/kg/injection, schedule: Q04DX003 (ip), vehicle: Klucel (hydroxypropylcellulose) (HPC)
[2] = dose: 200.0 mg/kg/injection, schedule: Q04DX003 (ip), vehicle: Klucel (hydroxypropylcellulose) (HPC)
[3] = dose: 400.0 mg/kg/injection, schedule: Q04DX003 (ip), vehicle: Klucel (hydroxypropylcellulose) (HPC)
[4] = dose: 12.5 mg/kg/injection, schedule: Q01DX009 (ip), vehicle: saline
[5] = dose: 25.0 mg/kg/injection, schedule: Q01DX009 (ip), vehicle: saline
[6] = dose: 50.0 mg/kg/injection, schedule: Q01DX009 (ip), vehicle: saline
[7] = dose: 100.0 mg/kg/injection, schedule: Q01DX001 (ip), vehicle: carboxymethylcellulose (CMC)
[8] = dose: 200.0 mg/kg/injection, schedule: Q01DX001 (ip), vehicle: carboxymethylcellulose (CMC)
[9] = dose: 400.0 mg/kg/injection, schedule: Q01DX001 (ip), vehicle: carboxymethylcellulose (CMC)
[10] = dose: 100.0 mg/kg/injection, schedule: Q04DX002 (ip), vehicle: saline with Tween-80
[11] = dose: 200.0 mg/kg/injection, schedule: Q04DX002 (ip), vehicle: saline with Tween-80
[12] = dose: 100.0 mg/kg/injection, schedule: Q01DX009 (ip), vehicle: Klucel (hydroxypropylcellulose) (HPC)
[13] = dose: 200.0 mg/kg/injection, schedule: Q01DX009 (ip), vehicle: Klucel (hydroxypropylcellulose) (HPC)
[14] = dose: 400.0 mg/kg/injection, schedule: Q01DX009 (ip), vehicle: Klucel (hydroxypropylcellulose) (HPC)
[15] = dose: 50.0 mg/kg/injection, schedule: Q01DX001 (ip), vehicle: carboxymethylcellulose (CMC)
[16] = dose: 50.0 mg/kg/injection, schedule: Q01DX009 (ip), vehicle: Klucel (hydroxypropylcellulose) (HPC)
[17] = dose: 100.0 mg/kg/injection, schedule: Q01DX001 (ip), vehicle: saline
[18] = dose: 200.0 mg/kg/injection, schedule: Q01DX001 (ip), vehicle: saline

For `NC(CSC1(c2ccc(Cl)cc2)c2ccccc2-c2ccccc21)C(=O)O` (stereo not drawn), the T/C (dose: 1.56 mg/kg/injection, schedule: Q01DX009 (ip), vehicle: other) was 98 % of control, the T/C (dose: 3.12 mg/kg/injection, schedule: Q01DX009 (ip), vehicle: other) was 106 % of control and the T/C (dose: 6.25 mg/kg/injection, schedule: Q01DX009 (ip), vehicle: other) was 100 % of control. The T/C (dose: 12.5 mg/kg/injection, schedule: Q01DX009 (ip), vehicle: other) was 98 % of control and 105 % of control, the T/C (dose: 25.0 mg/kg/injection, schedule: Q01DX009 (ip), vehicle: other) was 95 % of control and the T/C (dose: 50.0 mg/kg/injection, schedule: Q01DX009 (ip), vehicle: other) was 100 % of control. For the same compound, the T/C (dose: 100.0 mg/kg/injection, schedule: Q01DX009 (ip), vehicle: other) was 97 % of control.

For `CC(=O)Nc1cccc2cc(O)ccc12`, the T/C (dose: 100.0 mg/kg/injection, schedule: Q04DX003 (ip), vehicle: gum acacia) was 98 % of control, the T/C (dose: 200.0 mg/kg/injection, schedule: Q04DX003 (ip), vehicle: gum acacia) was 100 % of control and the T/C (dose: 400.0 mg/kg/injection, schedule: Q04DX003 (ip), vehicle: gum acacia) was 88 % of control.

In the case of `Cc1cc(C2C(O)C(c3cc(C)on3)C2(C)O)no1` (stereo not drawn), the T/C (dose: 100.0 mg/kg/injection, schedule: Q01DX001 (ip), vehicle: Klucel (hydroxypropylcellulose) (HPC)) is reported as 98 % of control, the T/C [1] is reported as 103 % of control and the T/C (dose: 200.0 mg/kg/injection, schedule: Q01DX001 (ip), vehicle: Klucel (hydroxypropylcellulose) (HPC)) is reported as 98 % of control. For the same compound, the T/C [2] was 97 % of control, the T/C (dose: 400.0 mg/kg/injection, schedule: Q01DX001 (ip), vehicle: Klucel (hydroxypropylcellulose) (HPC)) was 97 % of control and the T/C [3] was 103 % of control.

For `C[N+](C)(C)c1ccc(/C=C2/CCCCC2=O)cc1`, the T/C [4] was 117 % of control, the T/C (dose: 12.5 mg/kg/injection, schedule: Q04DX003 (ip), vehicle: saline) was 97 % of control and the T/C [5] was 100 % of control. For the same compound, the T/C (dose: 25.0 mg/kg/injection, schedule: Q04DX003 (ip), vehicle: saline) was 92 % of control, the T/C [6] was 103 % of control and the T/C (dose: 50.0 mg/kg/injection, schedule: Q04DX003 (ip), vehicle: saline) was 106 % of control.

With `FCCCC1CCCCN1` (stereo not drawn) the T/C [4] was 98 % of control, the T/C [5] was 102 % of control and the T/C [6] was 96 % of control and 109 % of control.

In the case of `COc1ccc(O)c(/C=C\C=O)c1`, the T/C [7] is reported as 100 % of control, the T/C [8] is reported as 100 % of control and the T/C [9] is reported as 106 % of control.

`Cc1ccc(C[N+](C)(C)C)cc1` was tested, and the T/C (dose: 9.38 mg/kg/injection, schedule: Q01DX001 (ip), vehicle: saline) was 103 % of control, the T/C (dose: 18.75 mg/kg/injection, schedule: Q01DX001 (ip), vehicle: saline) was 100 % of control and the T/C (dose: 37.5 mg/kg/injection, schedule: Q01DX001 (ip), vehicle: saline) was 100 % of control.

In the case of `Cc1c(NC(=O)Nc2cccc(Cl)c2)nc(Br)c2ccccc12`, the T/C [10] is reported as 101 % of control and the T/C [11] is reported as 96 % of control.

In the case of `CC(=O)OC1C(=O)C(C)(C)CSCC1(C)C` (stereo not drawn), the T/C [12] is reported as 103 % of control, the T/C [13] is reported as 103 % of control and the T/C [14] is reported as 105 % of control.

For `NC(=O)c1ccccc1OC(=O)Nc1ccc(F)cc1`, the T/C [15] was 100 % of control, the T/C (dose: 50.0 mg/kg/injection, schedule: Q01DX009 (ip), vehicle: carboxymethylcellulose (CMC)) was 97 % of control and the T/C [7] was 103 % of control. The T/C (dose: 100.0 mg/kg/injection, schedule: Q01DX009 (ip), vehicle: carboxymethylcellulose (CMC)) was 100 % of control and 103 % of control, the T/C (dose: 100.0 mg/kg/injection, schedule: Q04DX002 (ip), vehicle: carboxymethylcellulose (CMC)) was 100 % of control and 109 % of control and the T/C [8] was 102 % of control. The T/C (dose: 200.0 mg/kg/injection, schedule: Q04DX002 (ip), vehicle: carboxymethylcellulose (CMC)) was 100 % of control and the T/C (dose: 400.0 mg/kg/injection, schedule: Q04DX002 (ip), vehicle: carboxymethylcellulose (CMC)) was 86 % of control.

In the case of `COc1ccc(/C=C(\C#N)c2ccc(OC)cc2)cc1`, the T/C [12] is reported as 96 % of control, the T/C [1] is reported as 98 % of control and the T/C [13] is reported as 101 % of control. The T/C [2] was 91 % of control, the T/C [14] was 96 % of control and the T/C [3] was 93 % of control.

With `NCCc1cnc(N=Nc2ccc(C(=O)O)cc2)[nH]1` the T/C [16] was 89 % of control, the T/C [12] was 89 % of control and the T/C [13] was 87 % of control.

`CCOC(=O)CC1OC(=O)c2ccccc21` (stereo not drawn) was tested, and the T/C [10] was 97 % of control, the T/C [11] was 104 % of control and the T/C (dose: 400.0 mg/kg/injection, schedule: Q04DX002 (ip), vehicle: saline with Tween-80) was 108 % of control.

In the case of `CCOC(=O)/C=C1\CC2c3cc(OC)c(OC)cc3CCN2CC1CC` (stereo not drawn), the T/C [16] is reported as 93 % of control, the T/C [12] is reported as 96 % of control and the T/C [13] is reported as 96 % of control.

For `CCC1(O)C(=O)OCc2c1cc1n(c2=O)CCC1` (stereo not drawn), the T/C (dose: 12.5 mg/kg/injection, schedule: Q01DX001 (ip), vehicle: saline) was 113 % of control, the T/C (dose: 25.0 mg/kg/injection, schedule: Q01DX001 (ip), vehicle: saline) was 106 % of control and 110 % of control and the T/C (dose: 50.0 mg/kg/injection, schedule: Q01DX001 (ip), vehicle: saline) was 102 % of control. For the same compound, the T/C [17] was 101 % of control and the T/C [18] was 98 % of control.

For `NC(=O)c1ccc(Cl)c(Cl)c1`, the T/C (dose: 100.0 mg/kg/injection, schedule: Q04DX003 (ip), vehicle: saline with Tween-80) was 97 % of control, the T/C (dose: 200.0 mg/kg/injection, schedule: Q04DX003 (ip), vehicle: saline with Tween-80) was 95 % of control and the T/C (dose: 400.0 mg/kg/injection, schedule: Q04DX003 (ip), vehicle: saline with Tween-80) was 91 % of control.

With `CCCCCCCCCCCCCCCCN(C)c1ccc(C=O)cc1` the T/C (dose: 100.0 mg/kg/injection, schedule: Q01DX009 (ip), vehicle: saline) was 97 % of control, the T/C (dose: 100.0 mg/kg/injection, schedule: Q04DX003 (ip), vehicle: saline) was 104 % of control and the T/C (dose: 200.0 mg/kg/injection, schedule: Q01DX009 (ip), vehicle: saline) was 100 % of control. The T/C (dose: 200.0 mg/kg/injection, schedule: Q04DX003 (ip), vehicle: saline) was 98 % of control, the T/C (dose: 400.0 mg/kg/injection, schedule: Q01DX009 (ip), vehicle: saline) was 103 % of control and the T/C (dose: 400.0 mg/kg/injection, schedule: Q04DX003 (ip), vehicle: saline) was 105 % of control.

With `O=C(/C=C(/C(=O)c1ccccc1)N1CC1)c1ccccc1` the T/C [15] was 113 % of control, the T/C [7] was 105 % of control and the T/C [8] was 97 % of control. For the same compound, the T/C [9] was 103 % of control.

In the case of `Cc1ccccc1OC(=O)Nc1ccc(C(=O)O)c(O)c1`, the T/C (dose: 100.0 mg/kg/injection, schedule: Q01DX001 (ip), vehicle: saline with Tween-80) is reported as 93 % of control, the T/C (dose: 100.0 mg/kg/injection, schedule: Q01DX009 (ip), vehicle: saline with Tween-80) is reported as 94 % of control and the T/C (dose: 200.0 mg/kg/injection, schedule: Q01DX001 (ip), vehicle: saline with Tween-80) is reported as 96 % of control. The T/C (dose: 200.0 mg/kg/injection, schedule: Q01DX009 (ip), vehicle: saline with Tween-80) was 97 % of control and the T/C (dose: 400.0 mg/kg/injection, schedule: Q01DX001 (ip), vehicle: saline with Tween-80) was 93 % of control.

For `CC[n+]1cc(-c2ccc(NC(=O)/C=C\c3ccc(C(=O)Nc4ccc(-c5c[n+](CC)c(N)nc5N)cc4)cc3)cc2)c(N)nc1N`, the T/C (dose: 2.7 mg/kg/injection, schedule: Q01DX015 (ip), vehicle: saline) was 156 % of control, the T/C (dose: 6.2 mg/kg/injection, schedule: Q01DX015 (ip), vehicle: saline) was 153 % of control and the T/C (dose: 9.3 mg/kg/injection, schedule: Q01DX015 (ip), vehicle: saline) was 152 % of control. The T/C (dose: 14.0 mg/kg/injection, schedule: Q01DX015 (ip), vehicle: saline) was 201 % of control, the T/C (dose: 22.0 mg/kg/injection, schedule: Q01DX015 (ip), vehicle: saline) was 207 % of control and the T/C (dose: 45.0 mg/kg/injection, schedule: Q01DX001 (ip), vehicle: saline) was 101 % of control. For the same compound, the T/C (dose: 70.0 mg/kg/injection, schedule: Q01DX001 (ip), vehicle: saline) was 188 % of control, the T/C [17] was 225 % of control and 248 % of control and the T/C (dose: 150.0 mg/kg/injection, schedule: Q01DX001 (ip), vehicle: saline) was 107 % of control. For the same compound, the T/C [18] was 105 % of control and the T/C (dose: 155.0 micrograms/kg/injection, schedule: Q01DX009 (ip), vehicle: saline) was 121 % of control.
